From PubChem BioAssay (NCI)
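Dose response: 5 concentrations. Exposure: 48 h. Format: 96-well plates. Endpoint: linear interpolation; highest concentration if not reached. GI50 is the concentration that inhibits growth by half. TGI: total growth inhibition.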

Columns and labels:
Experiment in all cases: inhibition of tumour cell growth, NCI panel, 48 h
[1] = system: 786-0 renal
[2] = system: A498 renal
[3] = system: A549 NSCLC
[4] = system: ACHN renal
[5] = system: BT-549 breast
[6] = system: CAKI-1 renal
[7] = system: CCRF-CEM leukemia
[8] = system: COLO 205 colon
[9] = system: DU-145 prostate
[10] = system: EKVX NSCLC
[11] = system: HCC-2998 colon
[12] = system: HCT-116 colon
[13] = system: HCT-15 colon
[14] = system: HL-60(TB) leukemia
[15] = system: HOP-62 NSCLC
[16] = system: HS 578T breast
[17] = system: HT29 colon
[18] = system: IGROV1 ovarian
[19] = system: K-562 leukemia
[20] = system: KM12 colon
[21] = system: LOX IMVI melanoma
[22] = system: M14 melanoma
[23] = system: MALME-3M melanoma
[24] = system: MCF7 breast
[25] = system: MDA-MB-231 breast
[26] = system: MDA-MB-435
[27] = system: MOLT-4 leukemia
[28] = system: NCI-H226 lung
[29] = system: NCI-H23 lung
[30] = system: NCI-H460 lung
[31] = system: NCI-H522 lung
[32] = system: NCI/ADR-RES ovarian
[33] = system: OVCAR-3 ovarian
[34] = system: OVCAR-4 ovarian
[35] = system: OVCAR-5 ovarian
[36] = system: OVCAR-8 ovarian
[37] = system: PC-3 prostate
[38] = system: RPMI-8226 leukemia
[39] = system: RXF 393 renal
[40] = system: SF-268 CNS
[41] = system: SF-295 CNS
[42] = system: SF-539 CNS
[43] = system: SK-MEL-2 melanoma
[44] = system: SK-MEL-28 melanoma
[45] = system: SK-MEL-5 melanoma
[46] = system: SK-OV-3 ovarian
[47] = system: SN12C renal
[48] = system: SNB-19 CNS
[49] = system: SNB-75 CNS
[50] = system: SR leukemia
[51] = system: SW-620 colon
[52] = system: TK-10 renal
[53] = system: U251 CNS
[54] = system: UACC-257 melanoma
[55] = system: UACC-62 melanoma
[56] = system: UO-31 renal

O=C1c2ccccc2C(=O)c2c1c(=O)c(=O)c1ccccc1c(=O)n2Cc1ccccc1
GI50 [1]: > 100 µM | TGI [1]: > 100 µM | GI50 [2]: > 100 µM | TGI [2]: > 100 µM | GI50 [3]: 47.2 µM | TGI [3]: > 100 µM | GI50 [4]: > 100 µM | TGI [4]: > 100 µM | GI50 [5]: > 100 µM | TGI [5]: > 100 µM | GI50 [6]: > 100 µM | TGI [6]: > 100 µM | GI50 [7]: 7.67 µM | TGI [7]: > 100 µM | GI50 [8]: > 100 µM | TGI [8]: > 100 µM | GI50 [9]: 47.9 µM | TGI [9]: > 100 µM | GI50 [10]: > 100 µM | TGI [10]: > 100 µM | GI50 [11]: 84.2 µM | TGI [11]: > 100 µM | GI50 [12]: > 100 µM | TGI [12]: > 100 µM | GI50 [13]: > 100 µM | TGI [13]: > 100 µM | GI50 [14]: 41.8 µM | TGI [14]: > 100 µM | GI50 [15]: > 100 µM | TGI [15]: > 100 µM | GI50 [16]: > 100 µM | TGI [16]: > 100 µM | GI50 [17]: > 100 µM | TGI [17]: > 100 µM | GI50 [18]: 79.2 µM | TGI [18]: > 100 µM | GI50 [19]: 53.7 µM | TGI [19]: > 100 µM | GI50 [20]: 81.9 µM | TGI [20]: > 100 µM | GI50 [21]: 92.9 µM | TGI [21]: > 100 µM | GI50 [22]: 36.6 µM | TGI [22]: > 100 µM | GI50 [23]: 28.6 µM | TGI [23]: 80.1 µM | GI50 [24]: 79.1 µM | TGI [24]: > 100 µM | GI50 [25]: > 100 µM | TGI [25]: > 100 µM | GI50 [26]: > 100 µM | TGI [26]: > 100 µM | GI50 [27]: 38.2 µM | TGI [27]: > 100 µM | GI50 [28]: > 100 µM | TGI [28]: > 100 µM | GI50 [29]: 8.51 µM | TGI [29]: > 100 µM | GI50 [30]: 50.7 µM | TGI [30]: > 100 µM | GI50 [31]: > 100 µM | TGI [31]: > 100 µM | GI50 [32]: > 100 µM | TGI [32]: > 100 µM | GI50 [33]: 88.8 µM | TGI [33]: > 100 µM | GI50 [34]: > 100 µM | TGI [34]: > 100 µM | GI50 [35]: > 100 µM | TGI [35]: > 100 µM | GI50 [36]: > 100 µM | TGI [36]: > 100 µM | GI50 [37]: > 100 µM | TGI [37]: > 100 µM | GI50 [38]: 28.5 µM | TGI [38]: 85.2 µM | GI50 [39]: > 100 µM | TGI [39]: > 100 µM | GI50 [40]: > 100 µM | TGI [40]: > 100 µM | GI50 [41]: 53.1 µM | TGI [41]: > 100 µM | GI50 [42]: > 100 µM | TGI [42]: > 100 µM | GI50 [43]: > 100 µM | TGI [43]: > 100 µM | GI50 [44]: > 100 µM | TGI [44]: > 100 µM | GI50 [45]: 15.8 µM | TGI [45]: 47.2 µM | GI50 [46]: > 100 µM | TGI [46]: > 100 µM | GI50 [47]: > 100 µM | TGI [47]: > 100 µM | GI50 [48]: > 100 µM | TGI [48]: > 100 µM | GI50 [49]: > 100 µM | TGI [49]: > 100 µM | GI50 [50]: 29 µM | TGI [50]: > 100 µM | GI50 [51]: > 100 µM | TGI [51]: > 100 µM | GI50 [52]: > 100 µM | TGI [52]: > 100 µM | GI50 [53]: > 100 µM | TGI [53]: > 100 µM | GI50 [54]: > 100 µM | TGI [54]: > 100 µM | GI50 [55]: 66.3 µM | TGI [55]: > 100 µM | GI50 [56]: > 100 µM | TGI [56]: > 100 µM
